The record followed here is publication PMC10882622, “Cytosolic Delivery of Bioactive Cyclic Peptide Cargo by Spontaneous Membrane Translocating Peptides” (ACS Omega, 2024).

Several values for one entry are separate records, joined by “and”; a condition that tells them apart may be missing. Equal values may be shown once. Numbered stars: 1 amine (or outer) side, 2 acyl side, 3 side chain; on linkers, the order of the positions; unused ones are H or OH. Bridge positions count the residues as written; N and C are the ends. Square brackets hold non-standard residues; d marks the D form. Peptide text beside a SMILES is read from it. I, II: the chains in the order shown. Trp(2-yl) = O=C([C@H](Cc1c([*:3])[nH]c2ccccc12)N[*:1])[*:2]; X1 = O=C1CC([*:1])C(=O)N1CC1CCC(C(=O)[*:2])CC1; Leu(4R-OH,5-OH) = C[C@](O)(CO)C[C@H](N)C(=O)O; cisHyp = O=C(O)[C@@H]1C[C@H](O)CN1

Series [1] has as its system HeLa cells. Put plainly: cytotoxicity, cell viability by Alamar Blue. To be noted: Alamar Blue fluorescence after 72 h. Type of series: cell-based, human. How it is done:
Validated HeLa human […] cancer cells and HT1080 human epithelial fibrosarcoma cells were obtained from ATCC and were used at a low passage number without modification. All cells were maintained in T75 flasks in an incubator at 37 °C, 5% CO2 in complete media: DMEM containing 10% (%v/v) FBS, glucose, sodium pyruvate, L-glutamine, nonessential amino acids, and antibiotics. Serum-free media (SFM) was prepared in the same fashion as complete media but lacked FBS. Cells were maintained daily with two DPBS washes and replacement of complete media. When ≥90% confluent, cells were passaged using trypsin and seeded into another T75 flask and/or 96-well plates.
(§1) Figure 3 Control experiments. (A) Example in vitro actin depolymerization assay. Depolymerization of pyrene-labeled actin from Cytoskeleton, Inc. was initiated at time zero in the presence of 0–50 μM TP2-S-Ph conjugate. Pyrene excimer fluorescence was excited at 390 nm and monitored at 460 nm over 1 h. (B) Initial depolymerization rates from experiments such as the one shown in Panel A were measured by linear regression and averaged. We show depolymerization rates versus concentration for phalloidin and for the D-TP2-S-Ph conjugate. EC50 values are ∼3 μM for phalloidin and ∼6 μM for D-TP2-S-Ph. (C) Cytotoxicity and hemolysis caused by TP2, phalloidin, and the TP2-S-Ph chimera. Left axis: HeLa cells were incubated with the indicated concentration of compound for 4 h, and cell viability was measured by Alamar Blue fluorescence after 72 h. Right axis: washed human red blood cells were incubated for 1 h, and hemoglobin release was measured.
(§2) To further test for indirect cytotoxicity, we incubated HeLa cells with TP2-S-Ph, TP2 alone, and free phalloidin for 72 h, Figure 3C, and measured cell viability using Alamar Blue.
For orientation: The colour change of resazurin is a common sign of viable cells or microbes.

Series [2] has as its target T1, pyrene-labeled actin (Oryctolagus cuniculus, UniProt P68135).
T1 construct: purchased Cytoskeleton, Inc
Put plainly: in vitro actin depolymerization assay (pyrene excimer fluorescence, Cytoskeleton kit). To be noted: polymerized pyrene-actin, 0–50 μM, rates by linear regression, normalized to buffer-only control, averaged; read-out: EC50 for inhibition of actin depolymerization (initial depolymerization rate vs concentration). The series is classed as biochemical. How it is done:
An actin polymerization biochemistry kit (Cytoskeleton, Inc.) was used to assay the bioactivity of the phalloidin conjugates. All experiments were performed in a 96-well format and read on a fluorescent plate reader (Biotek Synergy II). Actin-pyrene monomers formed filamentous actin by using the supplied polymerization buffer, which caused pyrene excimer fluorescence (excitation 365 nm and emission 407 nm). Serial dilutions of phalloidin or TP2-SMCC-Ph were added to the filamentous actin-pyrene as well as a no peptide control. A supplied depolymerization buffer was then added to samples, and loss of fluorescence was monitored on the plate reader as a function of time. […] Calculated rates are normalized to the buffer-only controls.
The 7-position of natural phalloidin is a 4,5-dihydroxy leucine residue. […] Pyrene excimer fluorescence is measured such that depolymerization will drive a decrease in intensity. Polymerized actin, with added phalloidin or TP2-SMCC-Ph, is triggered to depolymerize at time zero, and the rate of excimer decrease is measured.
Figure 3 Control experiments. […] Pyrene excimer fluorescence was excited at 390 nm and monitored at 460 nm over 1 h. (B) Initial depolymerization rates from experiments such as the one shown in Panel A were measured by linear regression and averaged. […] Right axis: washed human red blood cells were incubated for 1 h, and hemoglobin release was measured.

The subject of series [3] is HT1080 cells. Briefly: wound-healing scratch (cell migration) assay. The series is classed as cell-based, human. Details: cell migration: dose or concentration left out as unconfirmed. On the procedure: A total of 30,000 HT1080 cells were seeded into each well of a 96-well plate in complete media and incubated for 24 h. Cells were washed with DPBS and incubated in serum-free media (SFM) for the next 48 h. Treatment with TP1/2/3-S-Ph, cytochalasin D, or media control, containing DMSO equal to treatment (% v/v), was done for four h at 37 °C. Cells were washed three times with DPBS and then scratched with 10 μL pipet tips on a multichannel pipettor. Evaluation of area closure was performed by phase contrast microscopic imaging of each well at 4× magnification, hourly, for 24 h with the Biotek Cytation 5 cell imaging reader and the BioSpa 8 automated incubator. Only the linear portion of the time course, up to 8 h, was used for analysis. For each condition studied, the scratch assay was performed in at least 6 biologically independent experiments, and each experiment consisted of 2–3 technical replicates.
ImageJ was used to trace the perimeter of each scratch. The gap area (GA) of each scratch was generated with ImageJ via batch processing with a lower threshold of 0 and an upper threshold of 60. The gap area for treatment groups was averaged and relativized as follows: [drawing 1]
Mean relative GA was plotted over time, and the absolute value of the slope from 1 to 8 h for each treatment was determined. Lastly, slopes were normalized against SFM controls.
We performed 4 h incubation in the presence of peptide chimeras and then washed the cells with PBS three times prior to conducting the scratch-closing measurements. This approach enabled us to assay only for rapid and nonreversible delivery of phalloidin cargo to the cytosol of cells by the peptides. The control compound cytochalasin D needed to be maintained at the noted concentration throughout the entire incubation time because, unlike the peptides, it is readily washed out of cells and has no effect if incubated for 4 h and washed away.
Figure 4 Example scratch assay. For this assay, a total of 30,000 HT1080 cells were seeded into each well of a 96-well cell culture plate in complete media and incubated for 24 h. Cells were washed with DPBS and incubated in serum-free media (SFM) for the next 48 h. Treatment with serum-free media, cytochalasin D, or peptide was done for 4 h at 37 °C. Cells were washed three times with DPBS and then scratched with 10 μL pipet tips on a multichannel pipettor. Cytochalasin D was replaced at the intended concentration, but the peptide was not. Evaluation of wound area was performed by phase contrast microscopic imaging of each well at 4× magnification with a BioTek Cytation 5 cell imaging reader and the BioSpa 8 automated incubator. Here, we show example images from a typical scratch assay taken 0, 1, 3, and 6 h after scratching a channel in the middle of the surface. Red lines show the edge of the wound identified by ImageJ and were used to calculate the total wound area from each image.
Migration rates were normalized to that of the NT/SFM group, which was always the fastest closing group. Each experiment was repeated in at least 6 biologically independent experiments, and each biologically independent experiment was repeated in 2–3 technical replicates.

Series [4] concerns human red blood cells. Put plainly: hemolysis, hemoglobin release. Type of series: cell-based. To be noted: washed human red blood cells, incubated 1 h. How it is done: as §1, §2
The mark [5] stands for this setting: 100 nM continuous, HT1080, serum-free media.

For `C[C@@H]1NC(=O)[C@H](C[C@@](C)(O)CO)NC(=O)[C@@H]2Cc3c([nH]c4ccccc34)SC[C@H](NC(=O)[C@@H]([C@H](C)O)NC1=O)C(=O)N1C[C@@H](O)C[C@H]1C(=O)N[C@@H](C)C(=O)N2` [phalloidin] (cyclo(A[dT]C[cisHyp]A[Trp(2-yl)][Leu(4R-OH,5-OH)]); thioether 3-6 (inferred); ring closure inferred), the “cytotoxic effects on HeLa cells (cell viability)” value in series [1] (up to 1 mM) is recorded as “no cytotoxic effects”. In addition, the EC50 in series [2] is < 5 µM and ~3 µM.
As to `C=C1[C@@H](C)[C@H]2[C@H](Cc3ccccc3)NC(=O)[C@]23[C@H](OC(C)=O)/C=C/[C@@](C)(O)C(=O)[C@@H](C)C/C=C/[C@H]3[C@@H]1O` [cytochalasin D], in series [3] (setting [5]), the “cell migration over the first 6 h” value is reported as “little to no migration” and the “inhibition of cell movement” value is reported as “inhibited cell movement completely”. Moreover, the “effect on cell migration after wash-out” value in series [3] (incubated for 4 h and washed away) is “no effect”. Moreover, the cell migration entry in series [3] (treatment, continuous, HT1080) is recorded as “some migration”.
As for `CC[C@@H](C)[C@@H](NC(=O)[C@@H](CC(C)C)NC(=O)[C@H]1CCCN1)C(=O)N[C@H](Cc1ccc(O)cc1)C(=O)N[C@H](CC(C)C)C(=O)N[C@H](CCCNC(=N)N)C(=O)N[C@H](CC(C)C)C(=O)N[C@H](CC(C)C)C(=O)N[C@H](CCCNC(=N)N)C(=O)NCC(=O)N[C@H](CCC(N)=O)C(=O)N[C@H](Cc1c[nH]c2ccccc12)C(=O)N[C@H](CSC1CC(=O)N(CC2CCC(C(=O)NCCCC[C@@H]3NC(=O)[C@@H]4Cc5c([nH]c6ccccc56)SC[C@H](NC(=O)[C@@H]([C@H](C)O)NC(=O)[C@H](C)NC3=O)C(=O)N3C[C@@H](O)C[C@H]3C(=O)N[C@@H](C)C(=O)N4)CC2)C1=O)C(N)=O` (stereo partly drawn) [TP2-S-Ph] (I: H-[dP][dL][dI][dY][dL][dR][dL][dL][dR]G[dQ][dW][dC]-NH2 / II: cyclo([cisHyp]A[Trp(2-yl)]KA[dT]C); linker I:13-II:4 via X1; thioether II:3-II:7), the “size of effect on cell migration compared with cytochalasin D control” value in series [3] (25 μM, applied for 4 h then washed off, control 100 nM continuous CD) is reported as “at least as large as the CD control”. In series [3] (at 25, 12.5, 6.3, and 3.1 μM, 4 h incubation then washed, slope 1–8 h, at least 6 independent experiments), the “effect on migration (mean wound closure rate) compared to no treatment, one-way ANOVA” value was “significant effects”. The “toxicity to HeLa cells (cell viability)” value in series [1] (0–25 μM concentration range) was “Neither the conjugated TP2 nor TP2 alone showed any toxicity”; in series [1] (at 50 μM) it was “the conjugate did not”. In series [4], the “hemolysis of red blood cells” value is “no hemolytic activity”. In addition, the EC50 in series [2] was < 5 µM and ~6 µM.
